Measurements as given in PubChem BioAssay AID330 (DTP/NCI, 2004).
“And” between values parts separate entries of the source, which are not always exact repeats. Equal entries are not always repeated. Inconclusive results and toxic doses are left out.

Tested on: P388 leukemia ip, CD2F1 mice, survival T/C
Assay: NCI In Vivo Anticancer Drug Screen. Data for tumor model P388 Leukemia (intraperitoneal) in CD2F1 (CDF1) mice
Details: endpoint: median survival time, higher = longer survival
Procedure, shortened: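 Mice carrying the transplanted tumor received test compound or vehicle. Survival was recorded in each group, and the value is the treated-group measurement divided by that of the vehicle-treated control group.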

[1] = dose: 25.0 mg/kg/injection, schedule: Q01DX009 (ip), vehicle: saline with Tween-80
[2] = dose: 50.0 mg/kg/injection, schedule: Q01DX009 (ip), vehicle: saline with Tween-80
[3] = dose: 50.0 mg/kg/injection, schedule: Q01DX005 (ip), vehicle: Klucel (hydroxypropylcellulose) (HPC)
[4] = dose: 100.0 mg/kg/injection, schedule: Q01DX005 (ip), vehicle: Klucel (hydroxypropylcellulose) (HPC)
[5] = dose: 60.0 mg/kg/injection, schedule: Q01DX005 (ip), vehicle: saline with Tween-80
[6] = dose: 120.0 mg/kg/injection, schedule: Q01DX005 (ip), vehicle: saline with Tween-80
[7] = dose: 25.0 mg/kg/injection, schedule: Q01DX005 (ip), vehicle: saline with Tween-80
[8] = dose: 50.0 mg/kg/injection, schedule: Q01DX005 (ip), vehicle: saline with Tween-80
[9] = dose: 100.0 mg/kg/injection, schedule: Q01DX005 (ip), vehicle: saline with Tween-80
[10] = dose: 200.0 mg/kg/injection, schedule: Q01DX005 (ip), vehicle: saline with Tween-80
[11] = dose: 200.0 mg/kg/injection, schedule: Q01DX005 (ip), vehicle: Klucel (hydroxypropylcellulose) (HPC)
[12] = dose: 12.5 mg/kg/injection, schedule: Q01DX009 (ip), vehicle: saline with Tween-80

## IC1=CC2CCC(C1)C2 (stereo not drawn)
[1]
  T/C: 100 % of control and 103 % of control
[2]
  T/C: 104 % of control and 116 % of control and 93 % of control
dose: 100.0 mg/kg/injection, schedule: Q01DX009 (ip), vehicle: saline with Tween-80
  T/C: 101 % of control and 109 % of control
dose: 200.0 mg/kg/injection, schedule: Q01DX009 (ip), vehicle: saline with Tween-80
  T/C: 102 % of control and 122 % of control and 96 % of control

## CC1=NN(C(=O)CC(=O)Nc2ccc(C(=O)O)cc2)C(=O)C1N=Nc1ccc(I)cc1 (stereo not drawn)
dose: 100.0 mg/kg/injection, schedule: Q04DX002 (ip), vehicle: saline with Tween-80
  T/C: 96 % of control
dose: 200.0 mg/kg/injection, schedule: Q04DX002 (ip), vehicle: saline with Tween-80
  T/C: 98 % of control
dose: 400.0 mg/kg/injection, schedule: Q04DX002 (ip), vehicle: saline with Tween-80
  T/C: 120 % of control

## O=C(O)C(CCCCNC(=S)S)NC(=S)S.[Zn+2] (stereo not drawn)
[3]
  T/C: 95 % of control
[4]
  T/C: 95 % of control

## Cc1cc2oc3c(c2c(=O)[nH]1)C(=O)c1ccccc1C3=O
[5]
  T/C: 100 % of control
[6]
  T/C: 94 % of control
dose: 240.0 mg/kg/injection, schedule: Q01DX005 (ip), vehicle: saline with Tween-80
  T/C: 91 % of control

## CCOC(=O)c1c2n(c3ccccc13)C1(C(=O)OCC)CC1(C(C)=O)C1CN21 (stereo not drawn)
[7]
  T/C: 106 % of control
[8]
  T/C: 101 % of control and 108 % of control
[9]
  T/C: 106 % of control and 120 % of control
[10]
  T/C: 117 % of control and 119 % of control

## CC1COCCOCCOCC(C)OC(=O)COCC(=O)O1 (stereo not drawn)
dose: 50.0 mg/kg/injection, schedule: Q01DX009 (ip), vehicle: Klucel (hydroxypropylcellulose) (HPC)
  T/C: 99 % of control
dose: 100.0 mg/kg/injection, schedule: Q01DX009 (ip), vehicle: Klucel (hydroxypropylcellulose) (HPC)
  T/C: 101 % of control
dose: 200.0 mg/kg/injection, schedule: Q01DX009 (ip), vehicle: Klucel (hydroxypropylcellulose) (HPC)
  T/C: 105 % of control

## C[C@]12C=CC(=O)C=C1CC[C@@H]1[C@@H]2C(=O)C[C@@]2(C)[C@H]1CC[C@]2(O)C(=O)COC(=O)CSc1c2ccccc2nc2ccccc12
dose: 12.5 mg/kg/injection, schedule: Q01DX005 (ip), vehicle: Klucel (hydroxypropylcellulose) (HPC)
  T/C: 103 % of control
dose: 25.0 mg/kg/injection, schedule: Q01DX005 (ip), vehicle: Klucel (hydroxypropylcellulose) (HPC)
  T/C: 100 % of control
[3]
  T/C: 104 % of control and 107 % of control
[4]
  T/C: 107 % of control
[11]
  T/C: 102 % of control

## O=C(CBr)c1ccc(F)cc1
[12]
  T/C: 113 % of control
dose: 25.0 mg/kg/injection, schedule: Q04DX003 (ip), vehicle: saline with Tween-80
  T/C: 104 % of control
dose: 50.0 mg/kg/injection, schedule: Q04DX003 (ip), vehicle: saline with Tween-80
  T/C: 100 % of control

## O=C(O)C(Cc1ccc(N(CCCl)CCCl)cc1)C(=O)O
[12]
  T/C: 161 % of control
[1]
  T/C: 171 % of control
[2]
  T/C: 189 % of control and 213 % of control

## CC1CN=C(c2ccc(NC(=O)NCCCCCCCCCCCCNC(=O)Nc3ccc(C4=NCC(C)N4)cc3)cc2)N1 (stereo not drawn)
dose: 6.25 mg/kg/injection, schedule: Q01DX005 (ip), vehicle: saline with Tween-80
  T/C: 103 % of control
dose: 12.5 mg/kg/injection, schedule: Q01DX005 (ip), vehicle: saline with Tween-80
  T/C: 103 % of control
[7]
  T/C: 108 % of control
[8]
  T/C: 106 % of control
[9]
  T/C: 116 % of control

## CCCn1c(Cl)c(/C=N\Nc2ccc([N+](=O)[O-])cc2[N+](=O)[O-])c2ccccc21
dose: 100.0 mg/kg/injection, schedule: Q04DX003 (ip), vehicle: saline with Tween-80
  T/C: 92 % of control
dose: 200.0 mg/kg/injection, schedule: Q04DX003 (ip), vehicle: saline with Tween-80
  T/C: 97 % of control
dose: 400.0 mg/kg/injection, schedule: Q04DX003 (ip), vehicle: saline with Tween-80
  T/C: 92 % of control

## CN(C)CCC#N
dose: 50.0 mg/kg/injection, schedule: Q01DX009 (ip), vehicle: saline
  T/C: 117 % of control
dose: 100.0 mg/kg/injection, schedule: Q01DX009 (ip), vehicle: saline
  T/C: 105 % of control
dose: 200.0 mg/kg/injection, schedule: Q01DX009 (ip), vehicle: saline
  T/C: 100 % of control

## O=C(O)C1CN(C(=O)OCC2c3ccccc3-c3ccccc32)CS1 (stereo not drawn)
[8]
  T/C: 94 % of control
[9]
  T/C: 94 % of control
[10]
  T/C: 92 % of control

## O=C(Nc1cc(Cl)ccc1Cl)/C(Cl)=C1/Sc2ccccc2NC1=O
dose: 100.0 mg/kg/injection, schedule: Q01DX001 (ip), vehicle: saline with Tween-80
  T/C: 108 % of control
dose: 200.0 mg/kg/injection, schedule: Q01DX001 (ip), vehicle: saline with Tween-80
  T/C: 90 % of control
dose: 400.0 mg/kg/injection, schedule: Q01DX001 (ip), vehicle: saline with Tween-80
  T/C: 90 % of control

## Cc1nccc2c1[nH]c1cc(N)ccc12.[Cl][Sn][Cl]
dose: 5.0 mg/kg/injection, schedule: Q01DX009 (ip), vehicle: saline sonified
  T/C: 100 % of control
dose: 10.0 mg/kg/injection, schedule: Q01DX009 (ip), vehicle: saline sonified
  T/C: 95 % of control
dose: 20.0 mg/kg/injection, schedule: Q01DX009 (ip), vehicle: saline sonified
  T/C: 100 % of control

## CCCCCCCCCCCC(=O)CCCC
dose: 100.0 mg/kg/injection, schedule: Q04DX003 (ip), vehicle: other
  T/C: 104 % of control
dose: 200.0 mg/kg/injection, schedule: Q04DX003 (ip), vehicle: other
  T/C: 113 % of control
dose: 400.0 mg/kg/injection, schedule: Q04DX003 (ip), vehicle: other
  T/C: 118 % of control

## C[CH2][Sn][Cl]
dose: 6.25 mg/kg/injection, schedule: Q01DX009 (ip), vehicle: saline
  T/C: 98 % of control
dose: 12.5 mg/kg/injection, schedule: Q01DX009 (ip), vehicle: saline
  T/C: 98 % of control
dose: 25.0 mg/kg/injection, schedule: Q01DX009 (ip), vehicle: saline
  T/C: 91 % of control

## C(CCc1nnc2c(n1)CCCC2)Cc1nnc2c(n1)CCCC2
[5]
  T/C: 99 % of control
[6]
  T/C: 88 % of control

## COC(=O)C(C#N)=C(Cl)Cl
dose: 1.56 mg/kg/injection, schedule: Q01DX005 (ip), vehicle: Klucel (hydroxypropylcellulose) (HPC)
  T/C: 98 % of control
dose: 3.12 mg/kg/injection, schedule: Q01DX005 (ip), vehicle: Klucel (hydroxypropylcellulose) (HPC)
  T/C: 94 % of control
dose: 6.25 mg/kg/injection, schedule: Q01DX005 (ip), vehicle: Klucel (hydroxypropylcellulose) (HPC)
  T/C: 93 % of control

## COC(=O)C1=C(C(=O)OC)CCC1
dose: 25.0 mg/kg/injection, schedule: Q01DX009 (ip), vehicle: distilled water + Tween-80
  T/C: 97 % of control
dose: 50.0 mg/kg/injection, schedule: Q01DX009 (ip), vehicle: distilled water + Tween-80
  T/C: 91 % of control
dose: 100.0 mg/kg/injection, schedule: Q01DX009 (ip), vehicle: distilled water + Tween-80
  T/C: 100 % of control
dose: 200.0 mg/kg/injection, schedule: Q01DX009 (ip), vehicle: distilled water + Tween-80
  T/C: 105 % of control
dose: 400.0 mg/kg/injection, schedule: Q01DX009 (ip), vehicle: distilled water + Tween-80
  T/C: 100 % of control

## S=C1NCC(c2ccccc2)(c2ccccc2)N1
dose: 6.25 mg/kg/injection, schedule: Q04DX003 (ip), vehicle: Klucel (hydroxypropylcellulose) (HPC)
  T/C: 103 % of control
dose: 12.5 mg/kg/injection, schedule: Q04DX003 (ip), vehicle: Klucel (hydroxypropylcellulose) (HPC)
  T/C: 98 % of control

## COc1cc(CC(CC(=O)O)C(=O)O)cc(OC)c1OC (stereo not drawn)
[3]
  T/C: 97 % of control
[4]
  T/C: 88 % of control
[11]
  T/C: 97 % of control

## CCC(C)C1NC(=O)C2CCCN2C(=O)C(CC2CO2)OC(=O)CCNC(=O)C(C)N(C)C(=O)C(C(C)C)N(C)C1=O (stereo not drawn)
dose: 1.56 mg/kg/injection, schedule: Q01DX005 (ip), vehicle: water
  T/C: 100 % of control
dose: 3.12 mg/kg/injection, schedule: Q01DX005 (ip), vehicle: water
  T/C: 109 % of control

## Cc1ccc(S(=O)(=O)NCC(CNS(=O)(=O)c2ccc(C)cc2)C(C)(C)C)cc1
dose: 100.0 mg/kg/injection, schedule: Q01DX001 (ip), vehicle: Klucel (hydroxypropylcellulose) (HPC)
  T/C: 93 % of control
dose: 200.0 mg/kg/injection, schedule: Q01DX001 (ip), vehicle: Klucel (hydroxypropylcellulose) (HPC)
  T/C: 93 % of control

## CCCCCCCC(=O)NCCCC(C)Nc1cc(OC)cc2cccnc12 (stereo not drawn)
[5]
  T/C: 106 % of control
[6]
  T/C: 99 % of control

## COc1ccc2c(c1)C1(C)CCCC(C)(COC(C)=O)C1CC2 (stereo not drawn)
dose: 7.5 mg/kg/injection, schedule: Q01DX009 (ip), vehicle: saline with Tween-80
  T/C: 91 % of control
dose: 15.0 mg/kg/injection, schedule: Q01DX009 (ip), vehicle: saline with Tween-80
  T/C: 91 % of control
dose: 30.0 mg/kg/injection, schedule: Q01DX009 (ip), vehicle: saline with Tween-80
  T/C: 89 % of control

## CNC(=O)OCCC(OC(=O)NC)C1CCC2C3CC=C4CC(OC(=O)c5ccccc5)CCC4(C)C3CCC12C (stereo not drawn)
[3]
  T/C: 103 % of control
[4]
  T/C: 99 % of control
[11]
  T/C: 92 % of control
